According to the kinase profiling compilation of Christmann-Franck et al. (2016):

Tests used:
Experiment in all cases: radiometric filter-binding kinase assay, Kinase HotSpot
Settings in all cases: compound 0.5 µM; ATP 10 µM
ABL2 (human) = ABL2 (human) (UniProt P42684)
AURKC (human) = AURKC (human) (UniProt Q9UQB9)
BRAF (human) = BRAF (human) (UniProt P15056)
CAMK2D (human) = CAMK2D (human) (UniProt Q13557)
CAMKK2 (human) = CAMKK2 (human) (UniProt Q96RR4)
CDK1 CCNB1 (human) = CDK1 CCNB1 (human) (UniProt P06493+P14635)
CHEK2 (human) = CHEK2 (human) (UniProt O96017)
CLK4 (human) = CLK4 (human) (UniProt Q9HAZ1)
CSNK1G3 (human) = CSNK1G3 (human) (UniProt Q9Y6M4)
DAPK2 (human) = DAPK2 (human) (UniProt Q9UIK4)
EGFR (human) = EGFR (human) (UniProt P00533)
EPHA3 (human) = EPHA3 (human) (UniProt P29320)
EPHA6 (human) = EPHA6 (human) (UniProt Q9UF33)
FGFR1 (human) = FGFR1 (human) (UniProt P11362)
FGR (human) = FGR (human) (UniProt P09769)
HIPK4 (human) = HIPK4 (human) (UniProt Q8NE63)
IGF1R (human) = IGF1R (human) (UniProt P08069)
IRAK4 (human) = IRAK4 (human) (UniProt Q9NWZ3)
ITK (human) = ITK (human) (UniProt Q08881)
LCK (human) = LCK (human) (UniProt P06239)
LIMK1 (human) = LIMK1 (human) (UniProt P53667)
MAP2K1 (human) = MAP2K1 (human) (UniProt Q02750)
MAPKAPK5 (human) = MAPKAPK5 (human) (UniProt Q8IW41)
MST1R (human) = MST1R (human) (UniProt Q04912)
MYLK2 (human) = MYLK2 (human) (UniProt Q9H1R3)
MYO3B (human) = MYO3B (human) (UniProt Q8WXR4)
NEK6 (human) = NEK6 (human) (UniProt Q9HC98)
NUAK1 (human) = NUAK1 (human) (UniProt O60285)
PDGFRB (human) = PDGFRB (human) (UniProt P09619)
PKN1 (human) = PKN1 (human) (UniProt Q16512)
PRKACG (human) = PRKACG (human) (UniProt P22612)
PRKCB1 (human) = PRKCB1 (human) (UniProt P05771)
PRKCZ (human) = PRKCZ (human) (UniProt Q05513)
RPS6KB2 (human) = RPS6KB2 (human) (UniProt Q9UBS0)
SRMS (human) = SRMS (human) (UniProt Q9H3Y6)
STK38 (human) = STK38 (human) (UniProt Q15208)
TGFBR2 (human) = TGFBR2 (human) (UniProt P37173)
TLK2 (human) = TLK2 (human) (UniProt Q86UE8)
ULK1 (human) = ULK1 (human) (UniProt O75385)
ULK2 (human) = ULK2 (human) (UniProt Q8IYT8)
ULK3 (human) = ULK3 (human) (UniProt Q6PHR2)
WEE1 (human) = WEE1 (human) (UniProt P30291)

Sequence of EGFR (human) (P00533 whole entry, looked up): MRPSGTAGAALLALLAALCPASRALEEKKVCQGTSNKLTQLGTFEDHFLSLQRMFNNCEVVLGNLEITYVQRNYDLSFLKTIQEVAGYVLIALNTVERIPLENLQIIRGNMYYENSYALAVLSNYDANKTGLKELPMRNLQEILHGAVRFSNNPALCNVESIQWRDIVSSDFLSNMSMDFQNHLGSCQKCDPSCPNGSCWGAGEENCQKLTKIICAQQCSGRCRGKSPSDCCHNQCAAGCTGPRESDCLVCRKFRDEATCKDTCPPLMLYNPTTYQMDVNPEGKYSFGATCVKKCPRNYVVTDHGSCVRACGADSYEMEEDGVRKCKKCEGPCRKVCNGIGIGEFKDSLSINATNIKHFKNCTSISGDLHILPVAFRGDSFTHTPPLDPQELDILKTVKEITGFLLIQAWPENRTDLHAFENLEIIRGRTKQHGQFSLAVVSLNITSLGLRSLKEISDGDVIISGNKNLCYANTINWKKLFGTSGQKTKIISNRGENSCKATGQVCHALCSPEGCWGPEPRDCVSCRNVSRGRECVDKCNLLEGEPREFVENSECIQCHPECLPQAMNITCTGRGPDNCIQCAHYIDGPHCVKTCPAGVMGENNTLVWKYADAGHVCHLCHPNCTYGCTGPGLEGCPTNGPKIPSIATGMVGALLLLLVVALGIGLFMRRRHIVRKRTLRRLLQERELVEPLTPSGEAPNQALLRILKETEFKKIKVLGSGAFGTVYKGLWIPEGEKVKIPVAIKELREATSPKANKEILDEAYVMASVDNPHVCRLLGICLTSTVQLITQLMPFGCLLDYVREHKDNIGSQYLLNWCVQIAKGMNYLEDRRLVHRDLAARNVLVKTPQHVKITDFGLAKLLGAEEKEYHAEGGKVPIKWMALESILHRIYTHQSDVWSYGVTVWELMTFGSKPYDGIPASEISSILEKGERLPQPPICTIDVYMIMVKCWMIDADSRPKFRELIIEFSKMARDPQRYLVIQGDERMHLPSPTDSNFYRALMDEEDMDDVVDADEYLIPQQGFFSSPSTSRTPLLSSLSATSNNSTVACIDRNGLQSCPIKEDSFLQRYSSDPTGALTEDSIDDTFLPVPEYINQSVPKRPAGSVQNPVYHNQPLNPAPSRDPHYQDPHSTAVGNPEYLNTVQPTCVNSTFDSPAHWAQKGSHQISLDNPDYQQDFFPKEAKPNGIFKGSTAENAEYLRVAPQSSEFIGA
Sequence of CDK1 CCNB1 (human) (P06493 whole entry, looked up): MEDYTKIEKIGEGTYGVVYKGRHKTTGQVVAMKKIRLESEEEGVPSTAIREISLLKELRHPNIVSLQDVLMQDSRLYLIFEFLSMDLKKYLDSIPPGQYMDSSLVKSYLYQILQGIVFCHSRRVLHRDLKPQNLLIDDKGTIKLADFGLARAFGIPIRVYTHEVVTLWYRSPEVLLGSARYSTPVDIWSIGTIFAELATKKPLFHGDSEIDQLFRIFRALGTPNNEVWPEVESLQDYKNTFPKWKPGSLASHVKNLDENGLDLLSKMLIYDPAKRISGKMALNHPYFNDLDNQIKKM
Sequence of CDK1 CCNB1 (human) (P14635 whole entry, looked up): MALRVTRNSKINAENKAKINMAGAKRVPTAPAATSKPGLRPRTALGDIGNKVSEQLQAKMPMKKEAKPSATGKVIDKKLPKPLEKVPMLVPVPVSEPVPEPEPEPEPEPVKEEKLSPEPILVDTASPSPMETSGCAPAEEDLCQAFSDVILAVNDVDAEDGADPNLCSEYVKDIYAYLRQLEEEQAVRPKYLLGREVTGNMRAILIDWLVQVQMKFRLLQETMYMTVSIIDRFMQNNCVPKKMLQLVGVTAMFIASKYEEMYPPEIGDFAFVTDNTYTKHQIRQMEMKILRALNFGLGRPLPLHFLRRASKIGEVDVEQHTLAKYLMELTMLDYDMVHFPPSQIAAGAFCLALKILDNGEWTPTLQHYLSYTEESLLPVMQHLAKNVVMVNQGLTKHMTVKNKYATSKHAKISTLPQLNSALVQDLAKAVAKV
Sequence of IRAK4 (human) (Q9NWZ3 whole entry, looked up): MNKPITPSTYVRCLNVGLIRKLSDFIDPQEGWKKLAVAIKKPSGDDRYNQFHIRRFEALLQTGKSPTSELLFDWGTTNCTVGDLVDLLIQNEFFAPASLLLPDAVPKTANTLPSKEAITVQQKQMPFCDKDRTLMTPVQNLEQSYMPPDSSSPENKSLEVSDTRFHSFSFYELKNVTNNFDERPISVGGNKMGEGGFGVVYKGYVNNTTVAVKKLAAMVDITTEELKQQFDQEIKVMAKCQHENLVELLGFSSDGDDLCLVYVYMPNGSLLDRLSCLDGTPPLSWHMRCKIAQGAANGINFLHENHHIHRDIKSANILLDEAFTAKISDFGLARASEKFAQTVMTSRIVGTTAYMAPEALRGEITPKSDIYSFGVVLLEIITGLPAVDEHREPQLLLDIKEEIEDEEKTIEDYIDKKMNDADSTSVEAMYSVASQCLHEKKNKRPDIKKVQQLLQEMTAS
Sequence of CAMK2D (human) (Q13557 whole entry, looked up): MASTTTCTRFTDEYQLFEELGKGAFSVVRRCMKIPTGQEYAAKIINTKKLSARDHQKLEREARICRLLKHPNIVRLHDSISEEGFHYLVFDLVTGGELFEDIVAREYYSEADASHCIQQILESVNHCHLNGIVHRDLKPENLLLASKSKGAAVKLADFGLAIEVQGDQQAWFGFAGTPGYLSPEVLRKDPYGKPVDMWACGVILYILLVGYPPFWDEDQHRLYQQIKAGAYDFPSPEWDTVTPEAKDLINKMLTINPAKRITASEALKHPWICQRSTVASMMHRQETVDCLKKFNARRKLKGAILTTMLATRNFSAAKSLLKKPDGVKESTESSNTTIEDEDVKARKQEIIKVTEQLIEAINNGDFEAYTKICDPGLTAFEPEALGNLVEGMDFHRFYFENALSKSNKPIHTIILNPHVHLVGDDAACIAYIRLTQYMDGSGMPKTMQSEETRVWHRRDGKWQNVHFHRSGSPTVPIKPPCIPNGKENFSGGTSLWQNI
Sequence of ULK2 (human) (Q8IYT8 whole entry, looked up): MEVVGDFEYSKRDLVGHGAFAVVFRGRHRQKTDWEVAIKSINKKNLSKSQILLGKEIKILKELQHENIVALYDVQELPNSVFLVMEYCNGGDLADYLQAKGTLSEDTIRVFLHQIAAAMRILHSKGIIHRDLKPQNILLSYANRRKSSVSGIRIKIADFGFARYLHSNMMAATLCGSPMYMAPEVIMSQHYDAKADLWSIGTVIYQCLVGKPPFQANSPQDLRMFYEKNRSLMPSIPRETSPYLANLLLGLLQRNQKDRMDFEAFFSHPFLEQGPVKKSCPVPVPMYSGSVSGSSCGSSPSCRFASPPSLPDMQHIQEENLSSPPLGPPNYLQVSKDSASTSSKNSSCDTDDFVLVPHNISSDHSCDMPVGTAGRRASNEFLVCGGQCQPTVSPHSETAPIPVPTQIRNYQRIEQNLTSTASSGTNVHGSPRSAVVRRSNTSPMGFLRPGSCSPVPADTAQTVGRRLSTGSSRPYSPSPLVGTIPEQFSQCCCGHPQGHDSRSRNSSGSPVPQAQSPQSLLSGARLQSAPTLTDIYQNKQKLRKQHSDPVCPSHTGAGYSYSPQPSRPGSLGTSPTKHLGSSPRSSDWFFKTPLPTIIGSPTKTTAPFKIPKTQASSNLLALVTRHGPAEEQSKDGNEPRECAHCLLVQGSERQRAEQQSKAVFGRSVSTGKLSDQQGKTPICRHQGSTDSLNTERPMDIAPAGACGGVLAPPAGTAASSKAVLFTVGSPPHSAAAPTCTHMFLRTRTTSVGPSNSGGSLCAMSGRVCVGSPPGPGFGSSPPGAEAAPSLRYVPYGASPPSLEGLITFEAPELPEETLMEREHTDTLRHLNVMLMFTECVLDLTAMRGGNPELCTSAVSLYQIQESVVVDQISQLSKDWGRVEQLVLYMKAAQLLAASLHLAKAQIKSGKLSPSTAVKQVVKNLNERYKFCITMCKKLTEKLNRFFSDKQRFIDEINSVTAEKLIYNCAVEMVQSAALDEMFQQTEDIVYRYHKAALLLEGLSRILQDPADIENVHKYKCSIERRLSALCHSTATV
Sequence of HIPK4 (human) (Q8NE63 whole entry, looked up): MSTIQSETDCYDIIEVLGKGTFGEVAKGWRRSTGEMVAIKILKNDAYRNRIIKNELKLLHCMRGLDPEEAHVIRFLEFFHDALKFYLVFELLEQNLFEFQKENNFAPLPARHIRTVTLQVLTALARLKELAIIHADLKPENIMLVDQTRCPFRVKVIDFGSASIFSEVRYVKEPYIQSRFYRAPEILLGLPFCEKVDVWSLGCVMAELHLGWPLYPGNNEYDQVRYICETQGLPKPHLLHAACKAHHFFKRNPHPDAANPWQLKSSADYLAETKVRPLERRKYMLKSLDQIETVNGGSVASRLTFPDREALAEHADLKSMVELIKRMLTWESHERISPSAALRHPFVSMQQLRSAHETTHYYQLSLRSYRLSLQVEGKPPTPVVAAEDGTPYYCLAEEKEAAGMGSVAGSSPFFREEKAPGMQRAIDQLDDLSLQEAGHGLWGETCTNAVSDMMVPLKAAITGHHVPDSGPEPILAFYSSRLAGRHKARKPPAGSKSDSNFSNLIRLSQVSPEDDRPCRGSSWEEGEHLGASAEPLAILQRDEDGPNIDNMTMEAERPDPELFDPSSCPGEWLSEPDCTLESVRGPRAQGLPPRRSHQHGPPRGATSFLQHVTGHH
Sequence of RPS6KB2 (human) (Q9UBS0 whole entry, looked up): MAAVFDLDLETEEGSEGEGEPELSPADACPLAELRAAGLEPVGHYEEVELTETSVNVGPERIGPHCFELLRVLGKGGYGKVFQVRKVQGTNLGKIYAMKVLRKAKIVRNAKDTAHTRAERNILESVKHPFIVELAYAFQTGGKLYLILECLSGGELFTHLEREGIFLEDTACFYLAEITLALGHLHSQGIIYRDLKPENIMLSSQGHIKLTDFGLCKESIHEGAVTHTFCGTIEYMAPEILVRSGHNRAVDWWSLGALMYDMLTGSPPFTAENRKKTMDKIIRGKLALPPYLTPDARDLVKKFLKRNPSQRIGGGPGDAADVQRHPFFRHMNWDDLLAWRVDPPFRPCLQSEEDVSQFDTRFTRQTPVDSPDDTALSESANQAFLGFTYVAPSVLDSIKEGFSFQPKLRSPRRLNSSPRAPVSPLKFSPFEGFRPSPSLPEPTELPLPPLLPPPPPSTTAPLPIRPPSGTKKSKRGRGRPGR

## COc1cccc(-c2cc(=O)c3ccccc3o2)c1N
ABL2 (human)
  residual activity: 96.8%
AURKC (human)
  residual activity: 95.3%
BRAF (human)
  residual activity: 93.6%
CAMK2D (human)
  residual activity: 91.5%
CAMKK2 (human)
  residual activity: 92.5%
CDK1 CCNB1 (human)
  residual activity: 99.8%
CHEK2 (human)
  residual activity: 98.8%
CLK4 (human)
  residual activity: 86.3%
CSNK1G3 (human)
  residual activity: 97.7%
DAPK2 (human)
  residual activity: 107%
EGFR (human)
  residual activity: 81.2%
EPHA3 (human)
  residual activity: 96.3%
EPHA6 (human)
  residual activity: 81.2%
FGFR1 (human)
  residual activity: 96.8%
FGR (human)
  residual activity: 94.8%
HIPK4 (human)
  residual activity: 98.6%
IGF1R (human)
  residual activity: 91.3%
IRAK4 (human)
  residual activity: 86.4%
ITK (human)
  residual activity: 96.5%
LCK (human)
  residual activity: 99%
LIMK1 (human)
  residual activity: 96.1%
MAP2K1 (human)
  residual activity: 69.1%
MAPKAPK5 (human)
  residual activity: 122%
MST1R (human)
  residual activity: 93.4%
MYLK2 (human)
  residual activity: 101%
MYO3B (human)
  residual activity: 97.8%
NEK6 (human)
  residual activity: 102%
NUAK1 (human)
  residual activity: 98.1%
PDGFRB (human)
  residual activity: 99.4%
PKN1 (human)
  residual activity: 102%
PRKACG (human)
  residual activity: 96%
PRKCB1 (human)
  residual activity: 98.5%
PRKCZ (human)
  residual activity: 99.1%
RPS6KB2 (human)
  residual activity: 84.5%
SRMS (human)
  residual activity: 104%
STK38 (human)
  residual activity: 97.4%
TGFBR2 (human)
  residual activity: 115%
TLK2 (human)
  residual activity: 84.8%
ULK1 (human)
  residual activity: 104%
ULK2 (human)
  residual activity: 109%
ULK3 (human)
  residual activity: 94.6%
WEE1 (human)
  residual activity: 83%

## FC(F)(F)c1ccc(/C=C/c2nc(COc3ccc(CCCCn4ccnn4)cc3)co2)cc1
AURKC (human)
  residual activity: 97.1%
BRAF (human)
  residual activity: 94.3%
CAMK2D (human)
  residual activity: 109%
CAMKK2 (human)
  residual activity: 101%
CDK1 CCNB1 (human)
  residual activity: 93.8%
CHEK2 (human)
  residual activity: 103%
CLK4 (human)
  residual activity: 101%
CSNK1G3 (human)
  residual activity: 96.7%
DAPK2 (human)
  residual activity: 107%
EGFR (human)
  residual activity: 97.7%
EPHA3 (human)
  residual activity: 92.7%
EPHA6 (human)
  residual activity: 99.3%
FGFR1 (human)
  residual activity: 101%
FGR (human)
  residual activity: 92.6%
HIPK4 (human)
  residual activity: 105%
IGF1R (human)
  residual activity: 101%
IRAK4 (human)
  residual activity: 97.7%
ITK (human)
  residual activity: 102%
LCK (human)
  residual activity: 92.1%
LIMK1 (human)
  residual activity: 99.2%
MAP2K1 (human)
  residual activity: 120%
MAPKAPK5 (human)
  residual activity: 101%
MST1R (human)
  residual activity: 104%
MYLK2 (human)
  residual activity: 101%
MYO3B (human)
  residual activity: 93.7%
NEK6 (human)
  residual activity: 92.6%
NUAK1 (human)
  residual activity: 103%
PDGFRB (human)
  residual activity: 98.1%
PKN1 (human)
  residual activity: 97%
PRKACG (human)
  residual activity: 105%
PRKCB1 (human)
  residual activity: 103%
PRKCZ (human)
  residual activity: 101%
RPS6KB2 (human)
  residual activity: 103%
SRMS (human)
  residual activity: 93.5%
STK38 (human)
  residual activity: 102%
TGFBR2 (human)
  residual activity: 103%
TLK2 (human)
  residual activity: 98.6%
ULK1 (human)
  residual activity: 87.2%
ULK2 (human)
  residual activity: 99.6%
ULK3 (human)
  residual activity: 99.5%
WEE1 (human)
  residual activity: 101%

## O=C(O)c1ccc2c3c1cccc3c(=O)n1c3ccccc3nc21
ABL2 (human)
  residual activity: 100%
AURKC (human)
  residual activity: 88%
BRAF (human)
  residual activity: 95.1%
CAMK2D (human)
  residual activity: 93.6%
CAMKK2 (human)
  residual activity: 7.88%
CDK1 CCNB1 (human)
  residual activity: 65%
CHEK2 (human)
  residual activity: 75.2%
CLK4 (human)
  residual activity: 82.8%
CSNK1G3 (human)
  residual activity: 96.9%
DAPK2 (human)
  residual activity: 91.9%
EGFR (human)
  residual activity: 96.5%
EPHA3 (human)
  residual activity: 104%
EPHA6 (human)
  residual activity: 105%
FGFR1 (human)
  residual activity: 84.7%
FGR (human)
  residual activity: 98.9%
HIPK4 (human)
  residual activity: 86.9%
IGF1R (human)
  residual activity: 100%
IRAK4 (human)
  residual activity: 107%
ITK (human)
  residual activity: 97.7%
LCK (human)
  residual activity: 101%
LIMK1 (human)
  residual activity: 92.7%
MAP2K1 (human)
  residual activity: 93.7%
MAPKAPK5 (human)
  residual activity: 96%
MST1R (human)
  residual activity: 100%
MYLK2 (human)
  residual activity: 99.6%
MYO3B (human)
  residual activity: 96.7%
NEK6 (human)
  residual activity: 115%
NUAK1 (human)
  residual activity: 41.3%
PDGFRB (human)
  residual activity: 107%
PKN1 (human)
  residual activity: 99.5%
PRKACG (human)
  residual activity: 127%
PRKCB1 (human)
  residual activity: 89.8%
PRKCZ (human)
  residual activity: 94.3%
RPS6KB2 (human)
  residual activity: 98%
SRMS (human)
  residual activity: 106%
STK38 (human)
  residual activity: 97.5%
TGFBR2 (human)
  residual activity: 133%
TLK2 (human)
  residual activity: 91.2%
ULK1 (human)
  residual activity: 83.5%
ULK2 (human)
  residual activity: 93.9%
ULK3 (human)
  residual activity: 79.8%
WEE1 (human)
  residual activity: 84.6%

## CCc1nc(-c2ccc(OC)cc2)[nH]c1-c1ccncc1
ABL2 (human)
  residual activity: 98.3%
AURKC (human)
  residual activity: 97.4%
BRAF (human)
  residual activity: 102%
CAMK2D (human)
  residual activity: 96.4%
CAMKK2 (human)
  residual activity: 109%
CDK1 CCNB1 (human)
  residual activity: 102%
CHEK2 (human)
  residual activity: 102%
CLK4 (human)
  residual activity: 99.3%
CSNK1G3 (human)
  residual activity: 106%
DAPK2 (human)
  residual activity: 104%
EGFR (human)
  residual activity: 103%
EPHA3 (human)
  residual activity: 100%
EPHA6 (human)
  residual activity: 104%
FGFR1 (human)
  residual activity: 88.1%
FGR (human)
  residual activity: 97.2%
HIPK4 (human)
  residual activity: 90%
IGF1R (human)
  residual activity: 99.5%
IRAK4 (human)
  residual activity: 111%
ITK (human)
  residual activity: 97.4%
LIMK1 (human)
  residual activity: 94.9%
MAP2K1 (human)
  residual activity: 97.8%
MAPKAPK5 (human)
  residual activity: 95.2%
MST1R (human)
  residual activity: 101%
MYLK2 (human)
  residual activity: 101%
MYO3B (human)
  residual activity: 107%
NEK6 (human)
  residual activity: 95.3%
NUAK1 (human)
  residual activity: 92.8%
PDGFRB (human)
  residual activity: 105%
PKN1 (human)
  residual activity: 97%
PRKACG (human)
  residual activity: 103%
PRKCB1 (human)
  residual activity: 104%
PRKCZ (human)
  residual activity: 107%
RPS6KB2 (human)
  residual activity: 95.6%
SRMS (human)
  residual activity: 106%
STK38 (human)
  residual activity: 102%
TGFBR2 (human)
  residual activity: 140%
TLK2 (human)
  residual activity: 102%
ULK1 (human)
  residual activity: 84.5%
ULK2 (human)
  residual activity: 98%
ULK3 (human)
  residual activity: 83.4%
WEE1 (human)
  residual activity: 89.1%
